From paper PMC10068823 (European Journal of Medicinal Chemistry, 2023)

Experiments:
[1] = system: HCoV 229E; experiment: organism not typed; conditions: BEAS-2B, read-out: EC50 HCoV229E
[2] = system: MERS-CoV
[3] = system: HCoV 229E; conditions: BEAS2B cell
[4] = biological target: T1, SARS-CoV-2 3CL^pro (Severe acute respiratory syndrome coronavirus 2, UniProt P0DTD1); assay type: biochemical
[5] = system: Calu-3 cells
[6] = biological target: T1, SARS-CoV-2 3CL^pro; assay type: biochemical; remark: listed apart in the source
[7] = system: SARS-CoV-2

Compound	EC50 [1] [µM]	SI (CC50/EC50) MERS [2]	SI (CC50/EC50) HCoV229E [3]	SARS-CoV-2 3CL^pro enzyme inhibition at fixed concentration [6]	improvement in antiviral potency when co-dosed with CP-100356 [7]	other results
CC(C)[C@H](NC(=O)OC(C)(C)C)C(=O)N1CCC[C@H]1C(=O)N[C@H](C=O)C[C@@H]1CCNC1=O [Compound 6, tert-Butyl ((S)-3-methyl-1-oxo-1-((S)-2-(((S)-1-oxo-3-((S)-2-oxopyrrolidin-3-yl)propan-2-yl)carbamoyl)pyrrolidin-1-yl)butan-2-yl)carbamate]	> 17.9	4.56 ± 1.39 (>22)	< 10			
CC(C)[C@H](NC(=O)OC(C)(C)C)C(=O)N1C[C@@H]2CCC[C@@H]2[C@H]1C(=O)N[C@H](C=O)C[C@@H]1CCNC1=O [Compound 12, tert-Butyl ((S)-3-methyl-1-oxo-1-((1S,3aR,6aS)-1-(((S)-1-oxo-3-((S)-2-oxopyrrolidin-3-yl)propan-2-yl)carbamoyl)hexahydrocyclopenta[c]pyrrol-2(1H)-yl)butan-2-yl)carbamate]						mechanism of action from enzymatic progression curve [4]: slow covalent binding inhibitor; cytotoxicity in Calu-3 cells [5]: without sign of cytotoxicity; lower activity against MERS compared to SARS-CoV-2 [2]: 20 fold
CO[C@H]1C[C@@H](C(=O)N[C@H](C=O)C[C@@H]2CCNC2=O)N(C(=O)[C@@H](NC(=O)OC(C)(C)C)C(C)C)C1 [Compound 8, tert-Butyl ((S)-1-((2S,4S)-4-methoxy-2-(((S)-1-oxo-3-((S)-2-oxopyrrolidin-3-yl)propan-2-yl)carbamoyl)pyrrolidin-1-yl)-3-methyl-1-oxobutan-2-yl)carbamate]	> 3.6	0.58 ± 0.34 (>172)	< 10			increase in potency on MERS respect to SARS-CoV-2 in the CPE cellular assay [2]: 15 fold
CC(C)[C@H](NC(=O)OC(C)(C)C)C(=O)N1CCC[C@H]1C(=O)N[C@@H](C[C@@H]1CCNC1=O)C(=O)O [Compound 26, (S)-2-((S)-1-((tert-butoxycarbonyl)-L-valyl)pyrrolidine-2-carboxamido)-3-((S)-2-oxopyrrolidin-3-yl)propanoic acid]				inactive		
CC(C)C[C@H](NC(=O)[C@@H](NC(=O)OC(C)(C)C)C(C)C)C(=O)N[C@H](C=O)C[C@@H]1CCNC1=O [Compound 5, tert-Butyl ((S)-3-methyl-1-(((S)-4-methyl-1-oxo-1-(((S)-1-oxo-3-((S)-2-oxopyrrolidin-3-yl)propan-2-yl)amino)pentan-2-yl)amino)-1-oxobutan-2-yl)carbamate]		1.58 ± 0.91 (>63)	> 30.1		more than 3 fold	
CC(C)[C@H](NC(=O)OC(C)(C)C)C(=O)N1CCCC[C@H]1C(=O)N[C@H](C=O)C[C@@H]1CCNC1=O [Compound 13, tert-Butyl ((S)-3-methyl-1-oxo-1-((S)-2-(((S)-1-oxo-3-((S)-2-oxopyrrolidin-3-yl)propan-2-yl)carbamoyl)piperidin-1-yl)butan-2-yl)carbamate]					more than 3 fold	
C[C@H](OC(C)(C)C)[C@H](NC(=O)OC(C)(C)C)C(=O)N1CCC[C@H]1C(=O)N[C@H](C=O)C[C@@H]1CCNC1=O [Compound 14, tert-Butyl ((2S,3S)-3-(tert-butoxy)-1-oxo-1-((S)-2-(((S)-1-oxo-3-((S)-2-oxopyrrolidin-3-yl)propan-2-yl)carbamoyl)pyrrolidin-1-yl)butan-2-yl)carbamate]					more than 3 fold	
COC(=O)[C@H](C[C@@H]1CCNC1=O)NC(=O)[C@@H]1CCCN1C(=O)[C@@H](NC(=O)OC(C)(C)C)C(C)C [Compound 25g, Methyl (S)-2-((S)-1-((tert-butoxycarbonyl)-L-valyl)pyrrolidine-2-carboxamido)-3-((S)-2-oxopyrrolidin-3-yl)propanoate]				inactive		
CC(C)[C@H](NC(=O)OC(C)(C)C)C(=O)N1CCC[C@H]1C(=O)N[C@H](CO)C[C@@H]1CCNC1=O [Compound 27g, tert-Butyl ((S)-1-((S)-2-(((S)-1-hydroxy-3-((S)-2-oxopyrrolidin-3-yl)propan-2-yl)carbamoyl)pyrrolidin-1-yl)-3-methyl-1-oxobutan-2-yl)carbamate]				inactive		
CC(C)[C@H](NC(=O)OC(C)(C)C)C(=O)N1C[C@H](OC(C)(C)C)C[C@H]1C(=O)N[C@H](C=O)C[C@@H]1CCNC1=O [Compound 11, tert-Butyl ((S)-1-((2S,4R)-4-(tert-butoxy)-2-(((S)-1-oxo-3-((S)-2-oxopyrrolidin-3-yl)propan-2-yl)carbamoyl)pyrrolidin-1-yl)-3-methyl-1-oxobutan-2-yl)carbamate]	> 48.2	33.56 ± 6.8 (>3)	< 10		more than 3 fold	
